The record followed here is ChEMBL document CHEMBL4052802, “Design, synthesis and biological evaluation of novel 3-oxo-4-oxa-5α-androst-17β-amide derivatives as dual 5α-reductase inhibitors and androgen receptor antagonists” (Bioorg Med Chem Lett, 2017).

As usually defined, the IC50 is the concentration at which inhibition is half-maximal. The term inhibition denotes the change of the read-out against control, counted positive when it falls. One may read the AUC(0-inf) as total exposure, with the tail of the curve extrapolated. A low value points to low exposure. In general, Cmax refers to the peak of the concentration-time curve. What is called Tmax is the time at which the peak concentration occurs. What is called AUC(0-t) is the area under the concentration-time curve up to a stated or last time point. High values mean high exposure, low ones low exposure.

The subject of series [1] is LNCaP. The series is described as follows: Cytotoxicity against human LNCAP cells after 48 hrs by MTT assay. It is filed as functional, cell-based. Background: Formazan colour is commonly taken as a measure of viable cells.
Series [2] deals with Androgen receptor (Homo sapiens) (UniProt P10275). The experiment in a line: Inhibition of recombinant human His-tagged/GST-fused androgen receptor LBD expressed in baculovirus expression system at 50 uM measured after 1.5 hrs by fluorescence polarization assay relative to control. For orientation: In fluorescence polarisation assays a small probe gives low polarisation when free and higher when bound to something large.

The test system of series [3] is PC-3. The series is described as follows: Growth inhibition of human PC3 cells at 80 uM after 48 hrs by MTT assay relative to control. It counts as functional. As to conditions: PC-3, 48 h, read-out: GI; call rule not given here.
Series [4] is described as follows: Inhibition of rat liver 5alpha-reductase using testosterone as substrate incubated for 30 mins measured for 10 mins by fluorescence assay.
Series [5] in a line: AUC (0 to infinity) in Sprague-Dawley rat at 0.2 mg/kg, po by LC-MS/MS analysis. It counts as ADME, organism-based. More on the design: dose 0.2 mg/kg, route oral, time infinity. As to conditions: in vivo.
Series [6] can be described thus: Selectivity ratio of IC50 for human PC3 cells to IC50 for human LNCAP cells. It is filed as functional.
Series [7] can be described thus: Cmax in Sprague-Dawley rat at 0.2 mg/kg, po by LC-MS/MS analysis. It counts as ADME, organism-based. As to conditions: in vivo. Set-up: dose 0.2 mg/kg, route oral.
The test system of series [8] is Plasma. The series is described as follows: Retention time in Sprague-Dawley rat plasma at 0.2 mg/kg, po measured after 24 hrs by total ion chromatographic method. It counts as ADME, organism-based. The conditions noted are these: in vivo.
The target in a further series is T1, Androgen receptor (Rattus norvegicus, UniProt P15207).
T1 sequence (P15207 whole entry): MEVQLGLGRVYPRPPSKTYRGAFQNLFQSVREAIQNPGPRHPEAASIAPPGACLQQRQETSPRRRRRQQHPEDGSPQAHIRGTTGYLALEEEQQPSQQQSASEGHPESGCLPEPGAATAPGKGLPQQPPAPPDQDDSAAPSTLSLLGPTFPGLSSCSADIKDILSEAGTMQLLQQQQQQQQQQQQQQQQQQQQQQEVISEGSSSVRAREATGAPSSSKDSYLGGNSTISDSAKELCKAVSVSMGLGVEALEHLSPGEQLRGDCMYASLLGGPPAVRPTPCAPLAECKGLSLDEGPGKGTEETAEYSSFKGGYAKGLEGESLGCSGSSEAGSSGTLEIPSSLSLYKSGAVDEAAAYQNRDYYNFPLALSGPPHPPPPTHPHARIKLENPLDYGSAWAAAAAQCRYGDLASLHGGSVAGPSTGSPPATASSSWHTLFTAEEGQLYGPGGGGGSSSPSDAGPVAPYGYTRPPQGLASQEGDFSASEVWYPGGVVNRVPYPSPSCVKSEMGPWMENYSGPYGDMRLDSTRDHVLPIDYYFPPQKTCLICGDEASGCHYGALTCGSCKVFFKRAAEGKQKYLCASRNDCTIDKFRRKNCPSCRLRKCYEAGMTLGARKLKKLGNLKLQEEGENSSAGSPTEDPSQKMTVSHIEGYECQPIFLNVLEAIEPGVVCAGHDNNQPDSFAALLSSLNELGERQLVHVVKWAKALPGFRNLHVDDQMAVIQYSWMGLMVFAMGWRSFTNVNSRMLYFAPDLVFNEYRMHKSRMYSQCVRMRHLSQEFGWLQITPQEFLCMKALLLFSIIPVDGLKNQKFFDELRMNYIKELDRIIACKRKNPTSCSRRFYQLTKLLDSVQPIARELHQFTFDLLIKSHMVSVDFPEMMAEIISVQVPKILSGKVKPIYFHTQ
The experiment in a line: Displacement of fluormone-AL Green from recombinant rat His-tagged/GST-fused androgen receptor LBD expressed in baculovirus expression system measured after 1.5 hrs by fluorescence polarization assay.

The subject of series [9] is Plasma. The experiment in a line: Drug uptake in Sprague-Dawley rat plasma at 0.2 mg/kg, po after 6 hrs by LC-MS/MS analysis. It counts as ADME, organism-based. As to conditions: in vivo.
Series [10] is described as follows: Elimination half-life in Sprague-Dawley rat at 0.2 mg/kg, po by LC-MS/MS analysis. It is filed as ADME, organism-based. As to conditions: in vivo, read-out: beta t1/2 (converted).
A short description of series [11]: Tmax in Sprague-Dawley rat at 0.2 mg/kg, po by LC-MS/MS analysis. It is filed as ADME, organism-based. As to conditions: in vivo.
Series [12] in a line: AUC (0 to t) in Sprague-Dawley rat at 0.2 mg/kg, po by LC-MS/MS analysis. It counts as ADME, organism-based. The conditions noted are these: in vivo.
The subject of series [13] is LNCaP. The series is described as follows: Growth inhibition of human LNCAP cells at 80 uM after 48 hrs by MTT assay relative to control. It counts as functional. As to conditions: read-out: GI.
The next series is filed under the species Rattus norvegicus. The experiment in a line: Inhibition of rat liver 5alpha-reductase at 50 uM using testosterone as substrate incubated for 30 mins measured for 10 mins by fluorescence assay relative to control.
Series [14] deals with PC-3. The series is described as follows: Cytotoxicity against human PC3 cells after 48 hrs by MTT assay. It is filed as functional, cell-based. The conditions noted are these: PC-3, 48 h.

With `Cc1ccc(NC(=O)[C@H]2CC[C@H]3[C@@H]4CC[C@H]5OC(=O)CC[C@]5(C)[C@H]4CC[C@]23C)cc1`, the IC50 came to 26.5 µM with LNCaP [1], 0.27 µM in series [4], 47.6 µM at Androgen receptor and 114 µM in the series with PC-3 [14]. The values for the inhibition (in series [2]; in the series listed under Rattus norvegicus) were 55.5% and 98.5%, respectively. The inhibition of growth at 80 µM with PC-3 [3] was 18.1%; in the series on LNCaP [13] it was 82.3%. Also, in series [5], the AUC(0-inf) stood at 54.1 ng·h/mL. For the same compound, in series [6], the “Ratio IC50” value came out at 4. The same compound returned a Cmax in series [7] of 6.89 ng/mL. For the same compound, the Retention_time in the series on Plasma [8] is on record as 3.6 min. Moreover, the Drug uptake result with Plasma [9] was “Not Active”. For the same compound, the half-life in series [10] is 4.74 h. For the same compound, the Tmax in [11] turned out to be 3.83 h. This compound came in with an area under the curve AUC(0-t) in series [12] of 52.5 ng·h/mL.
